One data set concerns maize leaf chloroplasts. Description: Agro-infiltration of maize leaves with DsRed2 fusions, fluorescence microscopy. The data set is classed as cell-based, Zea mays. The note with it: Example 16, assayed as described in Example 4. The source says:
A vector was constructed in which the portion of the maize HPPD (SEQ ID NO: 9) gene coding for the N-terminal 50 amino acids was fused to the gene coding for Discosoma sp. red fluorescence protein 2 (DsRed2) and inserted into a binary expression vector under control of the maize Rubisco activase promoter (Liu et al. (1996) Plant Physiol. 112(1): 43-51) and terminated with the Solanum tuberosum proteinase inhibitor II (pinII) terminator region (An et al. (1989) Plant Cell 1:115-122) with a hygromycin selection cassette. Both genes are between left and right border sequences from Agrobacterium.
A positive control vector was identical to the vector having the N-terminal 50 amino acids of maize HPPD described above except that the HPPD CTP was removed and the DsRed2 insert was fused to the chloroplast targeting peptide of Zea maize rubisco activase, while a negative control was DsRed2 with no targeting sequence. […] Agro-infiltration is a well described method (Kapila et. al. (1997) Plant Science, 122:101-108) of introducing an Agrobacterium cell suspension to plant cells of intact tissues so that reproducible infection and subsequent plant derived trans-gene expression may be measured or studied.
Leaves of 3-week old maize seedlings were infiltrated with the Agrobacterium, and examined by fluorescence microscopy two days later (Nikon Eclipse 80i, DsRed filter set). […]

The test system of the next data set is sorghum leaves plastids. Description: Agro-infiltration of sorghum leaves with DsRed fusions. It is filed as cell-based.
Data set [1] relates to G. max leaf cell chloroplasts. Kind of data set: Transient expression of Gm HPPD-AcGFP fusion proteins in soy leaf discs. The data set is classed as cell-based, Glycine max. The source says: Transient expression experiments indicate that the long HPPD protein (SEQ ID NO: 57) is imported to chloroplasts, while the short protein (SEQ ID NO: 59) remains in the cytosol. Plant expression cassettes were constructed fusing portions of the N terminus of Gm HPPD to an Aequorea coerulescens green fluorescent protein 1 (AcGFP1). One fusion contained amino acid residues 1-86 of the long Gm HPPD protein. Another contained residues 1-44 of the short HPPD protein (this corresponds to residues […] of the long protein). These cassettes were incorporated into binary vectors which also contained an untargeted DsRed2 expression cassette and introduced into A. tumefaciens strain AGL 1 and then used to infect leaf discs of G. max as described in Example 3 of U.S. Utility application Ser. No. 13/209,017, now issued U.S. Pat. No. 8,993,837, entitled “Chimeric Promoter and Methods of Use”, filed concurrently herewith and herein incorporated by reference in its entirety.

The next data set relates to maize cell chloroplasts. Kind of data set: Agro-infiltration of maize leaves with G. max HPPD N-terminus AcGFP1 fusions. It is filed as cell-based, Zea mays. To be noted: 4-week old maize seedlings, three days after infiltration. The source says: Vectors were constructed in which a portion of the gene coding for the G. max HPPD N-terminus was fused to a gene encoding Aequorea coerulescens green fluorescent protein 1 (AcGFP1) and inserted into a binary expression vector under control of the Arabidopsis Ubiquitin 10 promoter (Norris et al. (1993) Plant Mol. Biol. 21, 895-906) and terminated with the Glycine max Kunitz trypsin inhibitor 3 terminator region (NCBI accession S45092). Both genes were between left and right border sequences from Agrobacterium. One fusion contained amino acid residues 1-86 of the long Gm HPPD protein (SEQ ID NO:57). […]
A positive control vector was identical except that the AcGFP1 coding region was fused to the 6H1 synthetic chloroplast targeting peptide (U.S. Pat. No. 7,345,143), while a negative control was AcGFP1 with no targeting sequence. […] Agro-infiltration is a well described method (Kapila et. al. (1997) Plant Science, 122:101-108) of introducing an Agrobacterium cell suspension to plant cells of intact tissues so that reproducible infection and subsequent plant trans-gene expression may be measured or studied.
Leaves of 4-week old maize seedlings were infiltrated with the Agrobacterium, and examined by fluorescence microscopy three days later (Nikon Eclipse 80i, Narrow band-pass GFP filter set). […]

The test system of data set [2] is stably transformed soybean cells. Kind of data set: Immunogold localization of maize HPPD in stably transformed soybean leaf. To be noted: anti-maize HPPD antibody. The data set is classed as cell-based, Glycine max. The source says: Polyclonal antibodies were raised in rabbits against recombinant maize HPPD protein purified by nickel chelate affinity chromatography. Anti-HPPD antibodies were purified from serum by affinity chromatography on immobilized maize HPPD, and further purified by passage through a column of immobilized Rubisco, to remove a small fraction of antibodies that reacted with both HPPD and Rubisco. Leaf punches taken form stably transformed soybean plants expressing a gene encoding the maize HPPD protein (SEQ ID NO: 10) driven by an SCP1 synthetic promoter (U.S. Pat. No. 6,072,050) were fixed in 2% paraformaldehyde, 0.25% glutaraldehyde in 100 mM Na phosphate buffer, pH 7.0, for 3 hours at room temperature, dehydrated by passage through progressively higher concentrations of ethanol, embedded in LR White resin and cured at 55° C. for 48 hours. Sections (0.9 microns) were transferred onto Excell Adhesion glass microscope slides (Electron Microscopy Sciences). Immunolocalization was performed with the primary antibody being the double-purified anti-maize HPPD (1:200) and the secondary antibody goat anti-rabbit F(ab′) conjugated with gold particles (Aurion ultrasmall gold). Gold labeling was followed by silver enhancement (Aurion R-GENT SE-EM). […] Material was analyzed with a YAG detector for backscatter signal in a Hitachi 54800 scanning electron microscope. […]

In another data set the test system is maize HPPD. Kind of data set: HPPD activity assay of maize HPPD variants expressed in E. coli. The data set is classed as biochemical, Zea mays. The note with it: N-terminal truncated variants of maize wild-type HPPD, single measurement. From the text: Organellar targeting sequences are usually cleaved after the peptide enters the organelle. Previous investigators (Fritze I et al. (2004) Plant Physiology 134:1388-1400; Yang C et al. (2004) Biochemistry 43: 10414-10423) have shown that native mature maize HPPD begins at either ala17 or ala23. Variants of the wild-type maize HPPD protein coding region were created with various lengths of the amino terminus removed. The sequences were expressed in E. coli and tested for activity and stability. In each case a methionine start codon was added to the truncated sequence. Proteins were designated by the position of their N-terminal amino acid (all alanines) as in SEQ ID NO: 9. All N-terminal truncated proteins retained the HPPD activity. […] Assaying HPPD activity was carried out as described in Example 1 of Provisional Application 61/401,456, filed Aug. 13, 2010, Compositions and Methods Comprising Sequences having Hydroxyphenylpyruvate Dioxygenase (HPPD) Activity, herein incorporated by reference in it entirety.

Data on four molecules can be found in patent US9139842B2, “Methods and compositions for targeting sequences of interest to the chloroplast” (PIONEER HI-BRED INTERNATIONAL, INC., priority 2010, dated 2015).

With “MPPTPTTAAATGAGAAAAVTPEHAAFRLVGHRRFVRFNPRSDRFHTLAFHHVE [53 amino acid consensus sequence]”, the DsRed localization result in the data set with maize leaf chloroplasts is on record as “effectively targeted DsRed to maize plastids”. Also, the DsRed reporter localization entry with sorghum leaves plastids is recorded as “efficiently targeted the DsRed reporter protein to plastids”. In the case of “residues 42-86: residues 1-44 of the short Gm HPPD protein (42-86 of the long protein) fused to AcGFP1”, the “AcGFP green fluorescence localization” value in data set [1] is reported as “green fluorescence is visible only in the cytoplasm”. Further, the “AcGFP marker protein localization” value in the data set with maize cell chloroplasts is recorded as “delivered the protein to the cytosol”.

B1: maize HPPD: Maize WT HPPD (from WO1997049816 SEQ ID NO: 11), SEQ ID NO: 10 (protein)
chain: MPPTPTAAAAGAAVAAASAAEQAAFRLVGHRNFVRFNPRSDRFHTLAFHHVELWCADAASAAGRFSFGLGAPLAARSDLSTGNSAHASLLLRSGSLSFLFTAPYAHGADAATAALPSFSAAAARRFAADHGLAVRAVALRVADAEDAFRASVAAGARPAFGPVDLGRGFRLAEVELYGDVVLRYVSYPDGAAGEPFLPGFEGVASPGAADYGLSRFDHIVGNVPELAPAAAYFAGFTGFHEFAEFTTEDVGTAESGLNSMVLANNSENVLLPLNEPVHGTKRRSQIQTFLDHHGGPGVQHMALASDDVLRTLREMQARSAMGGFEFMAPPTSDYYDGVRRRAGDVLTEAQIKECQELGVLVDRDDQGVLLQIFTKPVGDRPTLFLEIIQRIGCMEKDEKGQEYQKGGCGGFGKGNFSQLFKSIEDYEKSLEAKQAAAAAAAQGS
modifications: Zea mays
In the case of B1, the gold labeling localization result in data set [2] was “mainly in cytosol and nuclei, but also in chloroplasts”.

B2: Maize wt: wild-type maize HPPD protein (SEQ ID NO: 9) expressed in E. coli (protein)
chain: MGPTPTAAAAGAAVAAASAAEQAAFRLVGHRNFVRFNPRSDRFHTLAFHHVELWCADAASAAGRFSFGLGAPLAARSDLSTGNSAHASLLLRSGSLSFLFTAPYAHGADAATAALPSFSAAAARRFAADHGLAVRAVALRVADAEDAFRASVAAGARPAFGPVDLGRGFRLAEVELYGDVVLRYVSYPDGAAGEPFLPGFEGVASPGAADYGLSRFDHIVGNVPELAPAAAYFAGFTGFHEFAEFTTEDVGTAESGLNSMVLANNSENVLLPLNEPVHGTKRRSQIQTFLDHHGGPGVQHMALASDDVLRTLREMQARSAMGGFEFMAPPTSDYYDGVRRRAGDVLTEAQIKECQELGVLVDRDDQGVLLQIFTKPVGDRPTLFLEIIQRIGCMEKDEKGQEYQKGGCGGFGKGNFSQLFKSIEDYEKSLEAKQAAAAAAAQGS
modifications: Zea mays
Take B2: the “kcat” value with maize HPPD came out at 2.77 s⁻¹.

A word on the kcat: it is the maximal rate divided by the concentration of active sites.
